In PubChem BioAssay (NCI) one finds TGI and GI50 data, which are given here for 15 molecules.

Test systems include UACC-257 melanoma; M14 melanoma; EKVX NSCLC; OVCAR-5 ovarian; SR leukemia; OVCAR-8 ovarian; SW-620 colon; RXF 393 renal; NCI/ADR-RES ovarian; HS 578T breast.
What all share (assay): NCI tumour cell line growth inhibition, 48 h

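All cell lines were grown in 96-well plates and treated with compound for 48 hours. GI50 = concentration required for 50% inhibition of growth. TGI marks complete inhibition of growth.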

Consider `C[C@]12CC=CC(=O)[C@@]1(C)CCC(=O)C2`, for which the TGI in the test on UACC-257 melanoma, with M14 melanoma, in the test with EKVX NSCLC, in the test on OVCAR-5 ovarian, in the test on SR leukemia and with OVCAR-8 ovarian was more than 100 µM throughout. Moreover, the TGI in the test on SW-620 colon and with RXF 393 renal was more than 100 µM throughout.
As to `[N-]=[N+]=NCCCn1c2c(c3ccc([N+](=O)[O-])cc3c1=O)C(=O)c1ccccc1-2`, the GI50 is 0.244 µM in the test on UACC-257 melanoma; more than 100 µM in the test with M14 melanoma; more than 100 µM in the test on EKVX NSCLC; more than 100 µM in the test on OVCAR-5 ovarian; more than 100 µM in the test on NCI/ADR-RES ovarian; 5.26 µM in the test on SW-620 colon. For the same molecule, the GI50 in the test on RXF 393 renal is 0.0923 µM. The TGI in the test on UACC-257 melanoma was 56.8 µM; with M14 melanoma, more than 100 µM; in the test with EKVX NSCLC, more than 100 µM; in the test on OVCAR-5 ovarian, more than 100 µM; in the test on OVCAR-8 ovarian, 0.061 µM; in the test on NCI/ADR-RES ovarian it was more than 100 µM. Besides, the results for the TGI with SW-620 colon and in the test with RXF 393 renal were more than 100 µM and 78.2 µM, respectively.
On to `O=C1N/C(=C\[N+](=O)[O-])c2ccccc21`, for which the TGI with UACC-257 melanoma, with M14 melanoma, with EKVX NSCLC, with OVCAR-5 ovarian, in the test with SR leukemia and in the test with OVCAR-8 ovarian was more than 100 µM throughout. For the same molecule, the TGI in the test with SW-620 colon and in the test with RXF 393 renal was more than 100 µM throughout.
For the molecule `O=C(Nc1cccc(O)c1)C(=O)C1C(=O)NC(=S)NC1=O`, the TGI in the test on UACC-257 melanoma, in the test with M14 melanoma, with EKVX NSCLC, in the test on SR leukemia, in the test on OVCAR-8 ovarian and with SW-620 colon was more than 100 µM each time. In the test on RXF 393 renal, this molecule yielded a TGI of more than 100 µM.
For the molecule `CC1(O)C(C)(O)C2(C)O[Te]3(OC12C)OC1(C)C(C)(O)C(C)(O)C1(C)O3` (configuration not stated), the TGI is more than 100 µM with UACC-257 melanoma; more than 100 µM in the test with M14 melanoma; more than 100 µM with EKVX NSCLC; 29.4 µM in the test on OVCAR-5 ovarian; 51.3 µM in the test with SR leukemia; 32 µM with OVCAR-8 ovarian. The TGI in the test on RXF 393 renal turned out to be 37.6 µM.
Take `NC(CCCC(N)P(=O)(O)O)P(=O)(O)O` (configuration not stated): the TGI in the test with UACC-257 melanoma, with M14 melanoma, in the test on EKVX NSCLC, in the test with OVCAR-8 ovarian, in the test with SW-620 colon and in the test on RXF 393 renal was more than 100 µM throughout.
As to `CC(=O)C1C(c2ccccc2)C2(C)OC(=O)C(C#N)C12C` (configuration not stated), the TGI with M14 melanoma, with EKVX NSCLC, in the test with OVCAR-5 ovarian, with OVCAR-8 ovarian, in the test on SW-620 colon and in the test with RXF 393 renal was more than 100 µM throughout.
As for `COc1cc(NCC(C#N)C#N)ccc1N=Nc1ccc(Cl)cc1`, the TGI was 33.5 µM in the test with M14 melanoma; 68.5 µM in the test with EKVX NSCLC; 44.4 µM in the test on OVCAR-5 ovarian; 35.9 µM in the test on SR leukemia; more than 100 µM in the test with OVCAR-8 ovarian; 41.9 µM in the test on SW-620 colon. The molecule further had a TGI with RXF 393 renal of 79 µM.
For `O=C(Nc1ccc(C(F)(F)F)cc1[N+](=O)[O-])C(=O)C1NC(=S)NC1=O` (configuration not stated), the TGI in the test with UACC-257 melanoma, with M14 melanoma, with EKVX NSCLC, with OVCAR-5 ovarian, in the test on SR leukemia and with OVCAR-8 ovarian was more than 100 µM each time. In addition, the TGI with SW-620 colon and in the test on RXF 393 renal was more than 100 µM each time.
`O=S(=O)(C1=CC(S(=O)(=O)c2ccccc2)CN(Cc2ccccc2)C1c1cccc2ccccc12)c1ccccc1` (configuration not stated): the TGI with UACC-257 melanoma, in the test on M14 melanoma, in the test with EKVX NSCLC, with OVCAR-5 ovarian, in the test with OVCAR-8 ovarian and in the test on SW-620 colon was more than 69 µM in each case. The same molecule registered a TGI in the test on RXF 393 renal of more than 69 µM.
`CCN1CCCc2cc3c(C(F)(F)F)cc(=O)oc3cc21`: the TGI with UACC-257 melanoma, in the test on M14 melanoma, with EKVX NSCLC, with OVCAR-5 ovarian, in the test on OVCAR-8 ovarian and with SW-620 colon was more than 100 µM each time. Further, the TGI in the test with RXF 393 renal came to 63.2 µM.
Consider `CCCC1(CC(=O)O)OCCc2c1[nH]c1ccccc21` (configuration not stated), for which the TGI with UACC-257 melanoma, in the test with M14 melanoma, in the test on EKVX NSCLC, with OVCAR-5 ovarian, in the test with OVCAR-8 ovarian and in the test on SW-620 colon was more than 100 µM throughout. The TGI with RXF 393 renal is more than 100 µM.
Regarding `Nc1ncc(-c2cnn(C3CCNCC3)c2)cc1-c1nc2cc(Cl)ccc2o1`, the GI50 was 1.29 µM in the test on UACC-257 melanoma; 1.79 µM in the test on M14 melanoma; 1.77 µM in the test on OVCAR-5 ovarian; 0.363 µM in the test with SW-620 colon; 1.55 µM in the test with RXF 393 renal; 0.385 µM in the test with HS 578T breast. For the same molecule, the TGI with UACC-257 melanoma came to 2.59 µM; with M14 melanoma, 3.25 µM; in the test with OVCAR-5 ovarian, 3.22 µM; in the test with SW-620 colon, 1.34 µM; in the test on RXF 393 renal it was 2.92 µM; in the test on HS 578T breast it was 1.77 µM.
Turning to `CC(=O)Oc1c(C)c(-c2ccccc2)c(C)c(-c2ccccc2)c1C(=S)c1ccccc1`, the TGI in the test with UACC-257 melanoma, in the test on M14 melanoma, in the test on EKVX NSCLC, with OVCAR-5 ovarian, with SR leukemia and with OVCAR-8 ovarian was more than 100 µM each time. The molecule also returned a TGI with RXF 393 renal of more than 100 µM.
Consider `CCOC(=O)[CH-]C(=O)C12CC3CC(CC(C3)C1)C2.CCOC(=O)[CH-]C(=O)C12CC3CC(CC(C3)C1)C2.CC[O-].CC[O-].[Ti+4]`, for which the GI50 with UACC-257 melanoma, in the test with M14 melanoma, in the test with SR leukemia, in the test with OVCAR-8 ovarian and in the test on SW-620 colon was more than 100 µM throughout. Also, the TGI with UACC-257 melanoma, with M14 melanoma, in the test on SR leukemia, in the test with OVCAR-8 ovarian and with SW-620 colon was more than 100 µM throughout.
